Test systems include IGROV-1; MCF7; HCT-116; BT-549; SN12C; OVCAR-8; HOP-62; OVCAR-3; MOLT-4; PC-3; SK-MEL-2; UACC-62; LOX IMVI; CAKI-1; CCRF-CEM; NCI-H226; K562; SNB-75; RXF 393; SF-268.
Assay in all cases: DTP human tumour cell line panel, 48 h

The structures appear in SMILES notation.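 Briefly, cells in 96-well plates were exposed to five compound concentrations for 48 h, and endpoints were estimated by linear interpolation. Abbreviation: GI50, concentration required for 50% inhibition of growth.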 Active and inactive are the calls of the source. No stated cut-off is given here; in the data, active = GI50 up to about 1.1 µM and inactive = higher. A value given as a limit tells only on which side of the number the result lay.

The GI50 is the concentration that inhibits growth by half. Regarding `Cc1cc(S(=O)(=O)Nc2nc3ccccc3c(=O)n2N)c(S)cc1Cl`, the GI50 is 43.8 µM (inactive) in the assay on IGROV-1; 71.1 µM (inactive) in the assay with MCF7; 32 µM (inactive) in the assay on HCT-116; 47.6 µM (inactive) in the assay on BT-549; 44.5 µM (inactive) with SN12C; 30.2 µM (inactive) in the assay on OVCAR-8. Further, the GI50 with HOP-62 is 14.8 µM (inactive); in the assay on OVCAR-3, 44.6 µM (inactive); in the assay on MOLT-4 it was 47.6 µM (inactive); in the assay with PC-3, 69.3 µM (inactive); with SK-MEL-2 it was 29.3 µM (inactive); in the assay on UACC-62, 20.7 µM (inactive). For the same molecule, the GI50 in the assay on LOX IMVI is 37.2 µM (inactive); with CAKI-1, 31.8 µM (inactive); in the assay on CCRF-CEM, 62.5 µM (inactive); with NCI-H226, 21.7 µM (inactive); with K562, 47.2 µM (inactive).
Turning to `CC1C2CC(CC2=O)C1(C)C` (stereo not given), the GI50 with IGROV-1, in the assay on MCF7, with SNB-75, in the assay with HCT-116, with BT-549 and in the assay with SN12C was > 100 µM (inactive) in each case. Also, the GI50 with OVCAR-8, in the assay on HOP-62, with OVCAR-3, with RXF 393, in the assay on MOLT-4 and with PC-3 was > 100 µM (inactive) in each case. Besides, the GI50 in the assay with UACC-62, in the assay on CAKI-1, with CCRF-CEM, with NCI-H226, with K562 and in the assay with SF-268 was > 100 µM (inactive) throughout.
For `COC(=O)C1CCC(=O)N1C(c1ccccc1)c1ccc(OC)c(OC)c1` (stereo not given), the GI50 in the assay with IGROV-1 is > 100 µM (inactive); in the assay with MCF7, > 100 µM (inactive); with SNB-75 it was 15.7 µM (inactive); in the assay on HCT-116, > 100 µM (inactive); with BT-549, > 100 µM (inactive); in the assay on SN12C, > 100 µM (inactive). Further, the GI50 in the assay on OVCAR-8 is > 100 µM (inactive); with HOP-62 it was > 100 µM (inactive); with OVCAR-3, > 100 µM (inactive); in the assay on MOLT-4 it was > 10 µM (inactive); with PC-3 it was > 100 µM (inactive); with SK-MEL-2, > 100 µM (inactive). Further, the GI50 is > 100 µM (inactive) with UACC-62; > 100 µM (inactive) in the assay with LOX IMVI; > 100 µM (inactive) in the assay with CAKI-1; > 10 µM (inactive) in the assay on CCRF-CEM; > 100 µM (inactive) in the assay on NCI-H226; > 100 µM (inactive) in the assay with K562. Also, the GI50 in the assay on SF-268 is > 100 µM (inactive).
Consider `Nc1ccc(-c2nc3ccccc3s2)cc1CO`, for which the GI50 was > 68.5 µM (inactive) with IGROV-1; > 100 µM (inactive) with SNB-75; 74.6 µM (inactive) with HCT-116; 47.3 µM (inactive) in the assay with BT-549; 45.8 µM (inactive) in the assay with SN12C; > 77.6 µM (inactive) with OVCAR-8. For the same molecule, the GI50 in the assay on HOP-62 was 31.5 µM (inactive); in the assay with OVCAR-3, > 100 µM (inactive); with RXF 393, > 100 µM (inactive); in the assay with MOLT-4, 16.5 µM (inactive); with PC-3, 66.8 µM (inactive); with SK-MEL-2, > 85.7 µM (inactive). Moreover, the GI50 with UACC-62 is 6.79 µM (inactive); in the assay with LOX IMVI, 84.3 µM (inactive); in the assay on CAKI-1, 2.9 µM (inactive); with CCRF-CEM, > 51.2 µM (inactive); in the assay with NCI-H226 it was < 0.01 µM (active); in the assay with K562 it was 6.05 µM (inactive). Besides, the GI50 in the assay with SF-268 is > 73.5 µM (inactive).
As for `N#CC1=CNc2sccc2S1(=O)=O`, the GI50 in the assay with IGROV-1 was > 100 µM (inactive); in the assay on MCF7 it was > 100 µM (inactive); in the assay on SNB-75 it was > 100 µM (inactive); in the assay on HCT-116, 89.7 µM (inactive); with BT-549, > 100 µM (inactive); in the assay on SN12C it was > 100 µM (inactive). For the same molecule, the GI50 in the assay on OVCAR-8 was > 100 µM (inactive); in the assay with HOP-62, > 100 µM (inactive); with OVCAR-3, > 100 µM (inactive); with MOLT-4, 39.6 µM (inactive); in the assay with PC-3 it was > 100 µM (inactive); with SK-MEL-2, > 100 µM (inactive). The GI50 in the assay on UACC-62 is > 100 µM (inactive); in the assay on LOX IMVI, > 100 µM (inactive); in the assay with CAKI-1 it was > 100 µM (inactive); with NCI-H226, > 100 µM (inactive); with SF-268, 81.7 µM (inactive).
`CCOC(=O)NCC(=O)NCC(=O)NCC(N)=O`: the GI50 in the assay with IGROV-1, in the assay with MCF7, with HCT-116, with BT-549, in the assay on OVCAR-8 and with HOP-62 was > 100 µM (inactive) each time. Further, the GI50 in the assay on OVCAR-3, with RXF 393, in the assay on MOLT-4, with PC-3, in the assay on SK-MEL-2 and in the assay with UACC-62 was > 100 µM (inactive) in each case. Moreover, the GI50 with CAKI-1, with CCRF-CEM, in the assay on NCI-H226, with K562 and in the assay on SF-268 was > 100 µM (inactive) in each case.
As for `Cc1cccc2c1[C@]13OC(C)[C@]4(C)CC5OC(=O)[C@@]1(C)[C@@H]5[C@]34C(=O)O2` (stereo not given in full), the GI50 in the assay with IGROV-1, with MCF7, with SNB-75, in the assay on HCT-116, in the assay on BT-549 and with SN12C was > 100 µM (inactive) each time. In addition, the GI50 with OVCAR-8, with HOP-62, with OVCAR-3, in the assay with MOLT-4, in the assay on PC-3 and in the assay with SK-MEL-2 was > 100 µM (inactive) in each case. In addition, the GI50 in the assay with UACC-62, with LOX IMVI, in the assay with CAKI-1, in the assay on CCRF-CEM, in the assay on NCI-H226 and in the assay on K562 was > 100 µM (inactive) in each case. Besides, in the assay on SF-268, the GI50 is > 100 µM (inactive).
For the molecule `O=c1c2ccccc2nc2[nH][nH]c(=S)n12`, the GI50 is > 100 µM (inactive) in the assay with IGROV-1; > 100 µM (inactive) in the assay with MCF7; 48.4 µM (inactive) in the assay with SNB-75; > 100 µM (inactive) with HCT-116; > 100 µM (inactive) with BT-549; > 100 µM (inactive) in the assay on SN12C. The GI50 is > 100 µM (inactive) in the assay on OVCAR-8; > 100 µM (inactive) in the assay with HOP-62; > 100 µM (inactive) in the assay on OVCAR-3; 58.6 µM (inactive) with MOLT-4; > 100 µM (inactive) in the assay on PC-3; > 100 µM (inactive) in the assay on SK-MEL-2. Further, the GI50 in the assay on UACC-62, in the assay on LOX IMVI, in the assay with CAKI-1, in the assay with CCRF-CEM, in the assay on NCI-H226 and in the assay on K562 was > 100 µM (inactive) throughout. Besides, the GI50 with SF-268 was > 100 µM (inactive).
For the molecule `CC(C)(CN1CCCCC1)C(/C=C/c1ccccc1)=N\NC(=O)N/N=C(/C=C/c1ccccc1)C(C)(C)CN1CCCCC1`, the GI50 in the assay with IGROV-1 was 2.51 µM (inactive); in the assay on MCF7, 1.71 µM (inactive); with SNB-75, 1.38 µM (inactive); in the assay on HCT-116, 1.58 µM (inactive); in the assay with BT-549, 1.77 µM (inactive); in the assay on SN12C, 1.89 µM (inactive). The GI50 in the assay on OVCAR-8 was 1.78 µM (inactive); with HOP-62 it was 1.85 µM (inactive); with OVCAR-3 it was 2.34 µM (inactive); in the assay with MOLT-4 it was 1.67 µM (inactive); with PC-3, 1.97 µM (inactive); in the assay on SK-MEL-2, 2.01 µM (inactive). Further, the GI50 is 1.54 µM (inactive) in the assay on UACC-62; 1.8 µM (inactive) in the assay on LOX IMVI; 2.27 µM (inactive) in the assay with CAKI-1; 1.19 µM (inactive) in the assay on CCRF-CEM; 2.37 µM (inactive) in the assay with NCI-H226; 1.19 µM (inactive) in the assay with K562. Further, the GI50 in the assay on SF-268 is 3.24 µM (inactive).
For the molecule `COc1ccc2cc(NC(=O)N/N=C\c3ccc(Cl)cc3)ccc2c1`, the GI50 with IGROV-1 is 88.7 µM (inactive); in the assay with MCF7 it was > 100 µM (inactive); with SNB-75, 72.3 µM (inactive); in the assay with HCT-116, > 100 µM (inactive); with BT-549 it was > 100 µM (inactive); in the assay with SN12C, > 100 µM (inactive). For the same molecule, the GI50 was 96.8 µM (inactive) in the assay with OVCAR-8; 27.5 µM (inactive) in the assay on HOP-62; > 100 µM (inactive) with OVCAR-3; > 100 µM (inactive) in the assay with MOLT-4; > 100 µM (inactive) in the assay on PC-3; > 100 µM (inactive) in the assay with SK-MEL-2. The GI50 in the assay with UACC-62 is 40.3 µM (inactive); in the assay on LOX IMVI, > 100 µM (inactive); in the assay on CAKI-1, > 100 µM (inactive); in the assay on CCRF-CEM, > 100 µM (inactive); with NCI-H226, > 100 µM (inactive); in the assay on K562, > 100 µM (inactive). Also, in the assay on SF-268, the GI50 is 44.1 µM (inactive).
With `CC(=O)ON(OC(C)=O)c1ccc(C)cc1`, the GI50 with IGROV-1, in the assay with MCF7, in the assay on SNB-75, in the assay with HCT-116, with BT-549 and with OVCAR-8 was > 100 µM (inactive) each time. Moreover, the GI50 with HOP-62, in the assay on OVCAR-3, in the assay with RXF 393, in the assay on MOLT-4, in the assay on PC-3 and in the assay on SK-MEL-2 was > 100 µM (inactive) throughout. Also, the GI50 is > 100 µM (inactive) in the assay with UACC-62; > 100 µM (inactive) in the assay with CAKI-1; < 0.01 µM (active) with CCRF-CEM; > 100 µM (inactive) with K562; > 100 µM (inactive) in the assay with SF-268.

The values above are taken from ChEMBL document CHEMBL1201862, “PubChem BioAssay data set” (2004).
